In patent publication US20040009172A1, “Use of anti-TNFalpha antibodies and another drug” (priority 2002, published 2004):

Test system: patients with rheumatoid arthritis (RA)
Experiment: Multicenter, randomized, double-blind, placebo-controlled study of D2E7 in RA patients: efficacy (ACR response)
Assay type: in vivo, human
Experimental: A study was designed and conducted to investigate the safety and efficacy of D2E7 40 mg administered every other week to patients with RA whose disease was not adequately treated with their current anti-rheumatic therapies (including accepted DMARDs, NSAIDs, or steroids); and was a multicenter, randomized, double-blind, placebo-controlled study in which D2E7 was subcutaneously (sc) administered every other week for up to 24 weeks at a dosage of 40 mg to patients with rheumatoid arthritis (RA) whose disease was not adequately treated with their current anti-rheumatic therapies. Anti-rheumatic therapies permitted for use during the study included accepted disease-modifying anti-rheumatic drugs (DMARDs), non-steroidal anti-inflammatory drugs (NSAIDs), or steroids. Despite using anti-rheumatic therapies, patients must have had active disease documented at both the screening and baseline visits. Doses of DMARDs, as well as concomitant prednisone (<10 mg daily) and NSAIDs, were required to be stable for at least 28 days prior to screening. Additionally, patients using azathioprine and/or cyclosporine discontinued these therapies and underwent a 28-day washout period before screening. At the baseline visit, patients were randomized to D2E7 or placebo and this signified the start of the 24-week placebo-controlled period. Patients were examined at Weeks 2, 4, 8, 12, 16, 20 and 24 of the study.
Patients were inadequately treated with their current anti-rheumatic therapies and had active RA, defined as ≧6 swollen joints and ≧9 tender joints. Additionally, patients using glucocorticoids were allowed into the study if the dose was equivalent to ≦10 mg/day prednisone and had remained unchanged for at least 28 days.
D2E7 was supplied in 2-mL glass vials (the concentration of D2E7 in each vial was 25 mg/mL (ie, 40 mg/1.6 mL)), each containing 40 mg D2E7/1.6 mL solution for injection. D2E7 was manufactured and supplied by Ebewe Arzneimittel GmbH, in Unterach, Austria. McKesson, FIBOC Biosciences, in Rockville, Md., USA, packaged, labeled, stored and distributed D2E7 to the investigators at, each site for this study. D2E7 was self-administered as a single sc injection of 40 mg every other week for a period of 24 weeks. The concentration of study drug was 25 mg/mL. Placebo/1.6 mL (citrate-phosphate buffer solution without D2E7) was self-administered as a single sc injection every other week for a period of 24 weeks.
Patients continued to receive their pre-study dose of anti-rheumatic therapies. Anti-rheumatic therapies permitted for use during the study included DMARDs (hydroxychloroquine, leflunomide, methotrexate, parenteral gold, oral gold and sulfasalazine, or any combination of these or other DMARDs), NSAIDs and steroids. Doses of these DMARDs as well as concomitant prednisone (≦10 mg daily) and NSAIDs must have been stable for at least 28 days prior to screening.
Efficacy endpoints included: ACR20 response at Week 24; ACR50 and ACR70 at Week 24; AUC (area under the curve) of ACR20, ACR50 and ACR70 from baseline to Week 24; time to first response for ACR20, ACR50 and ACR70; numeric ACR (ACR-N); change from baseline to Week 24 in components of the ACR response criteria (tender joint count [TJC], swollen joint count [SJC], patient assessment of pain, patient and physician global assessments of disease activity, HAQ and C-reactive protein [CRP]); change from baseline to Week 24 in physical function as measured by SF-36, health utilities index (HUI), functional assessment of chronic illness therapy (FACIT) fatigue scale; Euro-QoL questionnaire; multidimensional assessment of fatigue (MAF) scale; subject summary survey; incidence and time to dose increases in background DMARD and/or steroid therapy; institution of new DMARD therapy for lack of clinical response; rheumatoid factor (RF); and morning stiffness.
Adverse events were summarized by frequency, percentage, as well as the rate per 100 patient-years. […]

[1] = Non-responder, full analysis set excluding Site #7, N = 315
[2] = Week 2, full analysis set excluding Site #7, N = 315
[3] = Week 4, full analysis set excluding Site #7, N = 315
[4] = Week 8, full analysis set excluding Site #7, N = 315
[5] = Week 12, full analysis set excluding Site #7, N = 315
[6] = Week 16, full analysis set excluding Site #7, N = 315
[7] = Week 20, full analysis set excluding Site #7, N = 315
[8] = Week 24, full analysis set excluding Site #7, N = 315
[9] = Week 24, subgroup Three or more DMARDs
[10] = Week 24, subgroup concomitant Antimalarial
[11] = Week 24, subgroup concomitant Leflunomide
[12] = Week 24, subgroup concomitant Methotrexate
[13] = Week 24, subgroup concomitant Sulfasalazine

Substance: D2E7: recombinant, neutralizing human anti-hTNFα antibody; VL region SEQ ID NO: 1, VH region SEQ ID NO: 2
- ACR50 response, % of patients responding (LOCF Week 24, N = 315): (30.2) %
- ACR50 response, N of patients responding (LOCF Week 24, N = 315): 95
- ACR70 response, % of patients responding (LOCF Week 24, N = 315): (15.2) %
- ACR70 response, N of patients responding (LOCF Week 24, N = 315): 48
- ACR-N Mean ± SD (LOCF Week 24, N = 315): 21.2 ± 55.3
- Time to response ACR20: % of patients, Non-responder [1]: (19.4) %
- Time to response ACR20: N of patients, Non-responder [1]: 61
- Time to response ACR50: % of patients, Non-responder [1]: (50.8) %
- Time to response ACR50: N of patients, Non-responder [1]: 160
- Time to response ACR70: % of patients, Non-responder [1]: (73.3) %
- Time to response ACR70: N of patients, Non-responder [1]: 231
- Time to response ACR20: % of patients responding for the first time [2]: (33.7) %
- Time to response ACR20: N of patients responding for the first time [2]: 106
- Time to response ACR50: % of patients responding for the first time [2]: (9.8) %
- Time to response ACR50: N of patients responding for the first time [2]: 31
- Time to response ACR70: % of patients responding for the first time [2]: (2.9) %
- Time to response ACR70: N of patients responding for the first time [2]: 9
- Time to response ACR20: % of patients responding for the first time [3]: (16.2) %
- Time to response ACR20: N of patients responding for the first time [3]: 51
- Time to response ACR50: % of patients responding for the first time [3]: (9.8) %
- Time to response ACR50: N of patients responding for the first time [3]: 31
- Time to response ACR70: % of patients responding for the first time [3]: (3.8) %
- Time to response ACR70: N of patients responding for the first time [3]: 12
- Time to response ACR20: % of patients responding for the first time [4]: (16.5) %
- Time to response ACR20: N of patients responding for the first time [4]: 52
- Time to response ACR50: % of patients responding for the first time [4]: (10.8) %
- Time to response ACR50: N of patients responding for the first time [4]: 34
- Time to response ACR70: % of patients responding for the first time [4]: (3.8) %
- Time to response ACR70: N of patients responding for the first time [4]: 12
- Time to response ACR20: % of patients responding for the first time [5]: (5.4) %
- Time to response ACR20: N of patients responding for the first time [5]: 17
- Time to response ACR50: % of patients responding for the first time [5]: (6.3) %
- Time to response ACR50: N of patients responding for the first time [5]: 20
- Time to response ACR70: % of patients responding for the first time [5]: (5.7) %
- Time to response ACR70: N of patients responding for the first time [5]: 18
- Time to response ACR20: % of patients responding for the first time [6]: (4.1) %
- Time to response ACR20: N of patients responding for the first time [6]: 13
- Time to response ACR50: % of patients responding for the first time [6]: (6.3) %
- Time to response ACR50: N of patients responding for the first time [6]: 20
- Time to response ACR70: % of patients responding for the first time [6]: (5.7) %
- Time to response ACR70: N of patients responding for the first time [6]: 18
- Time to response ACR20: % of patients responding for the first time [7]: (3.8) %
- Time to response ACR20: N of patients responding for the first time [7]: 12
- Time to response ACR50: % of patients responding for the first time [7]: (2.9) %
- Time to response ACR50: N of patients responding for the first time [7]: 9
- Time to response ACR70: % of patients responding for the first time [7]: (2.2) %
- Time to response ACR70: N of patients responding for the first time [7]: 7
- ACR20 response, % of patients (Week 24, 40 mg sc every other week added to current anti-rheumatic therapies, N = 315): 53.0%
- ACR20 response, N of patients (Week 24, 40 mg sc every other week, N = 315): 167
- ACR50 response, N of patients responding (Week 24, N = 315): 92
- ACR70 response, N of patients responding (Week 24, N = 315): 47
- ACR-N Mean ± SD (Week 24, N = 315): 20.3 ± 55.2
- Time to response ACR20: % of patients responding for the first time [8]: (1.0) %
- Time to response ACR20: N of patients responding for the first time [8]: 3
- Time to response ACR50: % of patients responding for the first time [8]: (3.2) %
- Time to response ACR50: N of patients responding for the first time [8]: 10
- Time to response ACR70: % of patients responding for the first time [8]: (2.5) %
- Time to response ACR70: N of patients responding for the first time [8]: 8
- ACR20 % Response (Week 24, subgroup No DMARD): 50.0%
- ACR50 % (Week 24, subgroup No DMARD): 27.8%
- ACR70 % (Week 24, subgroup No DMARD): 18.5%
- ACR-N Mean ± SD (Week 24, subgroup No DMARD): 12.8 ± 68.2
- ACR20 % Response (Week 24, subgroup One DMARD): 55.4%
- ACR50 % (Week 24, subgroup One DMARD): 31.0%
- ACR70 % (Week 24, subgroup One DMARD): 16.3%
- ACR-N Mean ± SD (Week 24, subgroup One DMARD): 22.8 ± 56.0
- ACR20 % Response (Week 24, subgroup Other DMARDs): 52.0%
- ACR50 % (Week 24, subgroup Other DMARDs): 24.0%
- ACR70 % (Week 24, subgroup Other DMARDs): 16.0%
- ACR-N Mean ± SD (Week 24, subgroup Other DMARDs): 25.3 ± 33.9
- ACR20 % Response [9]: 45.5%
- ACR50 % [9]: 18.2%
- ACR70 % [9]: 9.1%
- ACR-N Mean ± SD [9]: 20.1 ± 37.2
- ACR20 % Response (Week 24, subgroup Two DMARDs): 50.0%
- ACR50 % (Week 24, subgroup Two DMARDs): 27.3%
- ACR70 % (Week 24, subgroup Two DMARDs): 9.1%
- ACR-N Mean ± SD (Week 24, subgroup Two DMARDs): 19.5 ± 42.3
- ACR20 % Response [10]: 50.7%
- ACR50 % [10]: 29.3%
- ACR70 % [10]: 12.0%
- ACR-N Mean ± SD [10]: 20.0 ± 45.5
- ACR20 % Response [11]: 33.3%
- ACR50 % [11]: 14.3%
- ACR70 % [11]: 0.0%
- ACR-N Mean ± SD [11]: −0.5 ± 77.5
- ACR20 % Response [12]: 56.7%
- ACR50 % [12]: 30.9%
- ACR70 % [12]: 15.2%
- ACR-N Mean ± SD [12]: 26.5 ± 42.3
- ACR20 % Response [13]: 58.6%
- ACR50 % [13]: 34.5%
- ACR70 % [13]: 17.2%
- ACR-N Mean ± SD [13]: 21.4 ± 53.9
- Subgroup analyses: ACR20, ACR50, ACR70, ACR-N and their AUC (concomitant methotrexate, antimalarial treatments, sulfasalazine, other DMARDs, or 0, 1, 2, or ≧3 DMARDs, vs placebo): greater improvement
- Response compared to placebo (in combination with methotrexate, antimalarial treatments, sulfasalazine, other DMARDs, or 0, 1, 2, or ≧3 DMARDs): higher response compared to placebo
- Improvement in RA (patients inadequately treated with existing DMARD therapies): significant improvement in RA
- Time to response and AUC for ACR20, ACR50, ACR70; AUC for ACR-N; Euro-QoL, RF, MAF scale (vs placebo): improvement in therapeutic response over placebo
